Patent US20210302318A1, “MEANS AND METHOD FOR THE REAL-TIME ANALYSIS OF HARVESTED CROPS” (THE STATE OF ISRAEL, MINISTRY OF AGRICULTURE & RURAL …, priority 2018, published 2021)

Tested on: insects in wheat
Assay: Monitoring efficiency of Deltamethrin pest control treatment in wheat with the TV1061 sensor
Assay type: in vivo
Conditions: FIG. 13
Description: Reference is now made to FIG. 13 showing monitoring efficiency of Deltamethrin pest control treatment in wheat. To determinate system capability to test the efficiency of the pest control treatments, infected and clean wheat were treated with Deltamethrin. Then, sensor (with TV1061 strain) was placed into the treated chambers. […] Deltamethrin is not effective against eggs inside the wheat. Therefore insects inside wheat (in eggs) will be destroyed at the time when they will hatch and walk out. […] Then decreasing in the sensor responses to the background levels may be explained by killing these insects by Deltamethrin residues on the wheat.

CC1(C)[C@H](C(=O)O[C@H](C#N)c2cccc(Oc3ccccc3)c2)[C@@H]1C=C(Br)Br [Deltamethrin]
effectiveness against eggs inside the wheat (eggs inside the wheat, sensor response increased on the third day after sanitization): not effective
pest control efficiency (insects in infected wheat) (infected and clean wheat treated, inferred from similar TV1061 sensor responses in infected and uninfected sample): all insects were destroyed
